Data taken from ChEMBL document CHEMBL2034824, “Pyridyl-2,5-diketopiperazines as potent, selective, and orally bioavailable oxytocin antagonists: synthesis, pharmacokinetics, and in vivo potency” (J Med Chem, 2012).
pKi: −log10 of the molar value.

Assays:
Oxytocin receptor [1] = target: T1, Oxytocin receptor (Homo sapiens, UniProt P30559); test: Antagonist activity at human oxytocin receptor assessed as inhibition of oxytocin binding by FLIPR analysis
T1 sequence (P30559 whole entry): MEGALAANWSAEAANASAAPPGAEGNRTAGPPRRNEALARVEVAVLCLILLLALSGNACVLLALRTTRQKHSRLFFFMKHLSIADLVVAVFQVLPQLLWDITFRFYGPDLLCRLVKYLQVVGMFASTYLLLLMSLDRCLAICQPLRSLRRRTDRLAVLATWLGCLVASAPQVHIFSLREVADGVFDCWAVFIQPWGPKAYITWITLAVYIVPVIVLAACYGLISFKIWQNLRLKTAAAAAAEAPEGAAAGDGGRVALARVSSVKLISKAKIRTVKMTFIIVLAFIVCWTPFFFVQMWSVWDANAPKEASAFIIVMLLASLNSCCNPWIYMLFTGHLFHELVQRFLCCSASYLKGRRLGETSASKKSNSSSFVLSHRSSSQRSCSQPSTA

Liver microsomes [2] = test: Intrinsic clearance in human liver microsomes; assay type: ADME, Microsome
[3] = Lipophilicity, log D of the compound by HPLC analysis; assay type: physicochemical
[4] = AUC in dog at 0.6 mg/kg, po; assay type: ADME, organism-based, Canis lupus familiaris; set-up: dose 0.6 mg/kg, route oral; settings: plasma
[5] = Oral bioavailability in rat at 5 mg/kg; assay type: ADME, organism-based; settings: in vivo
[6] = Aqueous solubility of the compound by HPLC analysis; assay type: physicochemical
[7] = Clearance in rat at 5 mg/kg; assay type: ADME, organism-based; set-up: dose 5 mg/kg; settings: in vivo
[8] = Oral bioavailability in dog at 0.6 mg/kg; assay type: ADME, organism-based, Canis lupus familiaris; settings: in vivo
Liver = test: Intrinsic clearance in dog liver microsomes; assay type: ADME, Canis lupus familiaris, Microsome
Liver microsomes [9] = test: Intrinsic clearance in rat liver microsomes; assay type: ADME, Microsome
Oxytocin receptor [10] = target: T1, Oxytocin receptor; test: Displacement of [3H]oxytocin from human oxytocin receptor
[11] = Clearance in dog at 0.6 mg/kg; assay type: ADME, organism-based, Canis lupus familiaris; set-up: dose 0.6 mg/kg; settings: in vivo
serum albumin [12] = target: serum albumin (Homo sapiens, UniProt P02768); test: Binding affinity to human serum albumin; assay type: ADME; settings: read-out: PB (converted)
Sequence of serum albumin (Homo sapiens, UniProt P02768) (P02768 whole entry): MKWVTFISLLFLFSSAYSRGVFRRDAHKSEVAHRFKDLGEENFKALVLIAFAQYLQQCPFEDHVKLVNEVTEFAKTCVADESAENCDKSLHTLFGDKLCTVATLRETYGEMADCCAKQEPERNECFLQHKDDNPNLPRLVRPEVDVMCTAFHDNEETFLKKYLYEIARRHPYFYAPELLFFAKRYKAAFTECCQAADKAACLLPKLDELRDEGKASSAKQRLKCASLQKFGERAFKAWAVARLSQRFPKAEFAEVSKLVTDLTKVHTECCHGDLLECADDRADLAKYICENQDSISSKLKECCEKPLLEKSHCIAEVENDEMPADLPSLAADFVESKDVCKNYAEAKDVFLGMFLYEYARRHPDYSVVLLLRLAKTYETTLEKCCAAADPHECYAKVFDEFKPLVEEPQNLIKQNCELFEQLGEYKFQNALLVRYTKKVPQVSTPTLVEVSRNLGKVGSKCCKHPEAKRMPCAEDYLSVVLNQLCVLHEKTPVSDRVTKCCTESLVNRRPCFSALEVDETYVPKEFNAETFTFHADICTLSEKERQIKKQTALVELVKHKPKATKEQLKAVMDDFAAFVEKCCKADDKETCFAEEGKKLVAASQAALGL

[13] = AUC in rat at 5 mg/kg, po; assay type: ADME, organism-based; set-up: dose 5 mg/kg, route oral; settings: plasma
serum albumin [14] = target: serum albumin (Rattus norvegicus, UniProt P02770); test: Binding affinity to rat serum albumin; assay type: ADME; settings: read-out: PB (converted)
Sequence of serum albumin (Rattus norvegicus, UniProt P02770) (P02770 whole entry): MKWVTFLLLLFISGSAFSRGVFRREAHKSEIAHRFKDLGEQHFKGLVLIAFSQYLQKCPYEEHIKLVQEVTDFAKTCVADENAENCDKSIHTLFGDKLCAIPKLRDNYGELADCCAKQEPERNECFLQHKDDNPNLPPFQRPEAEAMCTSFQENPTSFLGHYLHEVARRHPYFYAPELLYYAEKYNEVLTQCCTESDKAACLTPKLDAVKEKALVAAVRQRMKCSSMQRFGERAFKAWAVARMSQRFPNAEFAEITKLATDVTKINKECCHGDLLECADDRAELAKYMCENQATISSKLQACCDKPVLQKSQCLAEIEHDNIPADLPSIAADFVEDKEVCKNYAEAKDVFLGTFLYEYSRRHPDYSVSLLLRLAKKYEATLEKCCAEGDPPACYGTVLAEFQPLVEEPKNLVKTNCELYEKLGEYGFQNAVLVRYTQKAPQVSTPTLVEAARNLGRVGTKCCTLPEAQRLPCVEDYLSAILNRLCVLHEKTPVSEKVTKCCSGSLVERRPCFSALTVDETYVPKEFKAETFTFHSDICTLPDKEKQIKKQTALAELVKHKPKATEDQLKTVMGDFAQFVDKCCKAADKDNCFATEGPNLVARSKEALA

[15] = Intrinsic clearance in cynomolgus monkey liver microsomes; assay type: ADME, Macaca fascicularis, Microsome
[16] = Clearance in cynomolgus monkey at 2 mg/kg; assay type: ADME, organism-based, Macaca fascicularis; set-up: dose 2 mg/kg; settings: in vivo
[17] = Oral bioavailability in cynomolgus monkey at 2 mg/kg; assay type: ADME, organism-based, Macaca fascicularis; settings: in vivo
[18] = AUC in cynomolgus monkey at 2 mg/kg, po; assay type: ADME, organism-based, Macaca fascicularis; set-up: dose 2 mg/kg, route oral; settings: plasma

Row | pKi (Oxytocin receptor [1]) | CLH (Liver microsomes [2]) | bioavailability [5] | clearance [7] | CLH (Liver) | CLH (Liver microsomes [9]) | pKi (Oxytocin receptor [10]) | AUC [13] | CLH [15] | AUC [18] | SMILES | further results
1 | 8.40 |  |  |  |  |  |  |  |  |  | CC(C)C[C@@H]1C(=O)N[C@H](C2Cc3ccccc3C2)C(=O)N1[C@@H](C(=O)NC(C)C)c1ccccc1Cl | 
2 | 8.10 |  |  |  |  |  |  |  |  |  | Cc1ccccc1[C@H](C(=O)NC(C)C)N1C(=O)[C@@H](C2Cc3ccccc3C2)NC(=O)[C@H]1CC(C)C | 
3 | 7.80 |  |  |  |  |  |  |  |  |  | CCc1ccccc1[C@H](C(=O)NC(C)C)N1C(=O)[C@@H](C2Cc3ccccc3C2)NC(=O)[C@H]1CC(C)C | 
4 | 7.50 |  |  |  |  |  |  |  |  |  | CC(C)C[C@@H]1C(=O)N[C@H](C2Cc3ccccc3C2)C(=O)N1[C@@H](C(=O)NC(C)C)c1ccccc1C(F)(F)F | 
5 | 7.50 |  |  |  |  |  |  |  |  |  | COc1ccccc1[C@H](C(=O)NC(C)C)N1C(=O)[C@@H](C2Cc3ccccc3C2)NC(=O)[C@H]1CC(C)C | 
6 | 7.40 |  |  |  |  |  |  |  |  |  | CC(C)C[C@@H]1C(=O)N[C@H](C2Cc3ccccc3C2)C(=O)N1[C@@H](C(=O)NC(C)C)c1ccccc1OC(F)(F)F | 
7 | 7.40 |  |  |  |  |  |  |  |  |  | CC(C)C[C@@H]1C(=O)N[C@H](C2Cc3ccccc3C2)C(=O)N1[C@@H](C(=O)NC(C)C)c1ccccc1-c1ccccc1 | 
8 | 6.80 |  |  |  |  |  |  |  |  |  | COC(=O)c1ccccc1[C@@H](C(=O)NC(C)C)N1C(=O)[C@@H](C2Cc3ccccc3C2)NC(=O)[C@H]1CC(C)C | 
9 |  | 11 mL/min/g | 57% | 18 mL/min/kg | 3 mL/min/g | 3 mL/min/g | 8.80 | 2680 ng·h/mL | 21 mL/min/g |  | Cc1ccc([C@H](C(=O)N(C)C)N2C(=O)[C@@H](C3Cc4ccccc4C3)NC(=O)[C@H]2CC(C)C)cn1 | logD [3]: 2.1; AUC [4]: 454 ng·h/mL; solubility [6]: > 236 µg/mL; bioavailability [8]: 26%; clearance [11]: 6 mL/min/kg; fraction unbound (serum albumin [12]): 0.17; fraction unbound (serum albumin [14]): 0.14
10 |  | 7 mL/min/g | 84% | 15 mL/min/kg | 1 mL/min/g | 1 mL/min/g | 10.10 | 4720 ng·h/mL | 14 mL/min/g | 17 ng·h/mL | CC[C@H](C)[C@@H]1C(=O)N[C@H](C2Cc3ccccc3C2)C(=O)N1[C@@H](C(=O)N(C)C)c1ccc(C)nc1C | clearance [16]: 20 mL/min/kg; AUC [4]: 305 ng·h/mL; bioavailability [8]: 44%; clearance [11]: 14 mL/min/kg; bioavailability [17]: 1%
11 |  | 4 mL/min/g | 28% | 17 mL/min/kg | 2 mL/min/g | 1 mL/min/g | 10.00 | 1470 ng·h/mL | 8 mL/min/g | 29 ng·h/mL | CCC(CC)[C@@H]1C(=O)N[C@H](C2Cc3ccccc3C2)C(=O)N1[C@@H](C(=O)NC)c1ccc(C)nc1 | clearance [16]: 24 mL/min/kg; AUC [4]: 173 ng·h/mL; bioavailability [8]: 38%; clearance [11]: 22 mL/min/kg; bioavailability [17]: 4%
12 |  | 11 mL/min/g | 42% | 15 mL/min/kg | 1 mL/min/g | 1 mL/min/g | 10.50 | 2330 ng·h/mL | 14 mL/min/g | 11 ng·h/mL | CCC(CC)[C@@H]1C(=O)N[C@H](C2Cc3ccccc3C2)C(=O)N1[C@@H](C(=O)N1CCOCC1)c1ccc(C)nc1C | 
13 |  | 3 mL/min/g |  |  |  |  |  |  | 6 mL/min/g | 45 ng·h/mL | CC[C@H](C)[C@@H]1C(=O)N[C@H](C2Cc3ccccc3C2)C(=O)N1[C@@H](C(=O)N1CCOCC1)c1coc(C)n1 [RETOSIBAN] | clearance [16]: 26 mL/min/kg; bioavailability [17]: 10%
